Reference: US20110251379A1, “COMPOUNDS USEFUL FOR TREATING NEURODEGENERATIVE DISORDERS” (Satori Pharmaceuticals, Inc., priority 2010, published 2011)
Like-named read-outs stand apart in the source and are kept apart here.

Tested on: amyloid-beta (1-42) peptide
Test: ELISA assay of amyloid-beta (1-42) in conditioned media of 2B7 cells
Assay type: cell-based
Settings: for IC50: Aβ-42, 2B7 cells, 5 hours, read-out: IC50 range; for inhibition at 10 µM: Aβ-42, 10 umol/L
Description: Compounds of the present invention, and extracts comprising said compounds, may be assayed as inhibitors of amyloid-beta (1-42) peptide in vitro or in vivo. Such assay methods are described in detail in U.S. Pat. No. 6,649,196, the entirety of which is hereby incorporated herein by reference.
In certain embodiments, provided compounds of the present invention, and extracts comprising said compounds, were assayed as inhibitors of amyloid-beta (1-42) peptide in vitro using an ELISA assay.
Capture Plate Prep: • 6E10 was diluted to 5.0 ug/mL in 100 mM NaHCO3 pH 8.2 (10 ug aliquot per 2 mL buffer); • 100 uL capture antibody solution was added to wells of 96 well plate; • Incubated overnight at 4° C. sealed; • Aspirated off capture antibody; and • Blocked with 250 uL of Blocking Buffer for 2-4 hours at rt sealed.
Conditioned Media: • Cultured 2B7 cells in 96 well plate with 250 uL of media per well until confluent; • Prepared serial dilution of compounds in DMSO at 100× the final desired concentration; • Washed wells with 2B7 cells lx with 250 uL of media; • Diluted DMSO stocks 1:100 into media and mix; and • Added 250 μL of media containing compounds (1% DMSO) to wells with 2B7 cells for 5 hours at 37° C.
Elisa Sample Prep: • Diluted conditioned media 1:2 into blocking buffer; • NOTE: If assaying for A-Beta 1-40 or total A-Beta, then diluted above sample 1:10 with a 50/50 mixture of non-conditioned media containing 1% DMSO and blocking buffer.
Standard Curve Sample Prep: • Diluted appropriate A-Beta peptide stock (stored in 1% NH4OH) to 200 μg/mL in blocking buffer; • Prepared a 1:2 serial dilution from the 200 μg/mL sample (150 μL into 150 μL blocking buffer); and • Added equal volume of standard curve samples to non-conditioned media with 1% DMSO.
Overnight Sample Incubation: • Aspirated blocking buffer from blocked plate; • Added 100 μL of samples to wells of plate (samples will be 50% media with 1% DMSO and 50% blocking buffer; and • Incubated overnight at 4° C. sealed.
Addition of Detection Antibody: • Aspirated off samples, wash 2× with 250 μL blocking buffer; and • Added 100 μL detection antibody labeled with HRP at 0.25 ug/mL in blocking buffer for 4 hours at room temperature sealed.
Final Wash and Readout: • Aspirated wells, wash 5× with 250 μL of PBS-T (2 minutes each wash at 30 RPM); • Added 100 μL TMB for 20 minutes; • Added 100 μL of 1M H3PO4; and • Read at 450 nm.
Coating Buffer (100 mM NaHCO3 pH 8.2)
PBS-T (PBS with 0.05% Tween-20)
Blocking Buffer (1% BSA in PBS-T)

Structure (SMILES) | IC50 (5 h) | IC50 | further results
CN[C@H]1CC[C@]23C[C@]24CC[C@]2(C)C5C(O[C@@H]([C@H](OC(C)=O)C(C)(C)O)C[C@H]5C)[C@H](O)[C@@]2(C)[C@@H]4CC[C@H]3C1(C)C (some centres unmarked) | 1 to 10 µM |  | 
CC(=O)O[C@@H]([C@H]1C[C@@H](C)C2=C(O1)[C@H](O)[C@@]1(C)[C@@H]3CC[C@H]4C(C)(C)[C@@H](O[C@H]5CN(O)CCO5)CC[C@@]45C[C@@]35CC[C@]21C)C(C)(C)O | ≤ 1 µM |  | 
C[C@@H]1C[C@H]([C@H](O)C(C)(C)O)OC2C(=O)[C@@]3(C)[C@@H]4CC[C@H]5C(C)(C)[C@@H](O)CC[C@@]56C[C@@]46CC[C@]3(C)C21 (some centres unmarked) [drawing 893] |  |  | inhibition at 10 µM (read-out: % Inhibition (range)): < 25%
C[C@@H]1CC[C@@]2(NC1)OC1C[C@H]3C4CC=C5C[C@@H](O)CC[C@]5(C)C4CC[C@]3(C)C1[C@@H]2C (some centres unmarked) |  |  | inhibition at 2.5 µM (Aβ-42, 2.5 umol/L, read-out: % Inhibition (range)): < 25%
CC(=O)N(Cc1cccc(F)c1)CC1CC(C)C2C(O1)C(O)C1(C)C3CCC4C(C)(C)C(O)CCC45CC35CCC21C (centres unmarked) |  | ≤ 1 µM | 
C[C@@H]1C[C@H]([C@H](OC(N)=O)C(C)(C)O)OC2C1[C@@]1(C)CC[C@@]34C[C@@]35CC[C@H](O[C@@H]3OC[C@@H](O)[C@H](O)[C@H]3O)C(C)(C)[C@@H]5CC[C@H]4[C@]1(C)[C@H]2O (some centres unmarked) | 1 to 10 µM |  | 
C[C@@H]1C[C@H]([C@@H]2OC(=O)OC2(C)C)OC2=C1[C@@]1(C)CC[C@@]34C[C@@]35CC[C@H](O[C@@H]3OC[C@@H](O)[C@H](O)[C@H]3O)C(C)(C)[C@@H]5CC[C@H]4[C@]1(C)[C@H]2O | 1 to 10 µM |  | 
CC(=O)O[C@@H]([C@H]1C[C@@H](C)C2C(O1)[C@H](O)[C@@]1(C)[C@@H]3CC[C@H]4C(C)(C)[C@@H](OC(=O)c5cccnc5)CC[C@@]45C[C@@]35CC[C@]21C)C(C)(C)O (some centres unmarked) [drawing 951] | ≤ 1 µM |  | 
CC1CC(CNC(C)(C)C)OC2C1C1(C)CCC34CC35CCC(OS(C)(=O)=O)C(C)(C)C5CCC4C1(C)C2O (centres unmarked) |  | > 10 µM | 
CC(=O)OC(C)(C)[C@@H](O)[C@H]1C[C@@H](C)C2C(O1)[C@H](O)[C@@]1(C)[C@@H]3CC[C@H]4C(C)(C)[C@@H](O[C@@H]5OC[C@@H](O)[C@H](O)[C@H]5O)CC[C@@]45C[C@@]35CC[C@]21C (some centres unmarked) | 1 to 10 µM |  | 
CC1CC(CN)OC2C1C1(C)CCC34CC35CCC(O)C(C)(C)C5CCC4C1(C)C2O (centres unmarked) |  | > 10 µM | 
CC(C)C(O)[C@H]1C[C@@H](C)[C@H]2[C@H](O1)[C@H](O)[C@@]1(C)[C@@H]3CC[C@H]4C(C)(C)[C@@H](O)CC[C@@]45C[C@@]35CC[C@]21C (some centres unmarked) | > 10 µM |  | inhibition at 20 µM (Aβ-42, 20 umol/L, read-out: % Inhibition (range)): < 25%
CC(=O)O[C@@H]([C@H]1C[C@@H](C)C2C(O1)[C@H](O)[C@@]1(C)[C@@H]3CC[C@H]4C(C)(C)[C@@H](OC5CN(CCN6CCOCC6)CCO5)CC[C@@]45C[C@@]35CC[C@]21C)C(C)(C)O (some centres unmarked) | ≤ 1 µM |  | 
C[C@@H]1C[C@H]([C@@H]2OCOC2(C)C)OC2C1[C@@]1(C)CC[C@@]34C[C@@]35CC[C@H](O[C@@H]3OC[C@@H](O)[C@H](O)[C@H]3O)C(C)(C)[C@@H]5CC[C@H]4[C@]1(C)[C@H]2O (some centres unmarked) | 1 to 10 µM |  | 
CCC(=O)OC(C)(C)[C@H]1OC23O[C@@H]1C[C@@H](C)[C@@H]2[C@@]1(C)CC[C@@]24C[C@@]25CC[C@H](O[C@@H]2OC[C@@H](O)[C@H](O)[C@H]2O)C(C)(C)[C@@H]5CC[C@H]4[C@]1(C)[C@H]3O | 1 to 10 µM |  | 
C[C@@H]1C(I)COC2C[C@H]3[C@@H]4CC=C5C[C@@H](O)CC[C@]5(C)[C@H]4CC[C@]3(C)C21 (some centres unmarked) |  |  | inhibition at 10 µM (read-out: % Inhibition (range)): < 25%
CC(=O)O[C@@H]([C@H]1C[C@@H](C)[C@H]2[C@H](O1)[C@H](O)[C@@]1(C)[C@@H]3CC[C@H]4C(C)(C)[C@@H](O[C@H]5CN(CCN6CCCC6)CCO5)CC[C@@]45C[C@@]35CC[C@]21C)C(C)(C)O | ≤ 1 µM |  | 
COCCN[C@H]1CC[C@]23C[C@]24CC[C@]2(C)C5C(O[C@@H]([C@H](OC(C)=O)C(C)(C)O)C[C@H]5C)[C@H](O)[C@@]2(C)[C@@H]4CC[C@H]3C1(C)C (some centres unmarked) | 1 to 10 µM |  | 
CC(=O)O[C@@H]([C@H]1C[C@@H](C)[C@H]2[C@H](O1)[C@H](O)[C@@]1(C)[C@@H]3CC[C@H]4C(C)(C)[C@@H](O[C@H]5CN(CCO)CCO5)CC[C@@]45C[C@@]35CC[C@]21C)C(C)(C)O | ≤ 1 µM |  | 

Structure (SMILES) | IC50 (5 h) | IC50 | further results
CC(=O)N1CC(N2CCOC(OC3CCC45CC46CCC4(C)C7C(C)CC(C(O)C(C)(C)O)OC7C(O)C4(C)C6CCC5C3(C)C)C2)C1 (centres unmarked) |  |  | % Inhibition (range) (Aβ-42, 20 umol/L): F F (% inhibition of <25%); % Inhibition (range) (Aβ-42, 100 umol/L): F F (% inhibition of <25%)
CC(=O)N(CC1CC(C)C2C(O1)C(O)C1(C)C3CCC4C(C)(C)C(O)CCC45CC35CCC21C)CC(F)(F)F (centres unmarked) |  | > 10 µM | 
COCO[C@H]1[C@H](O)COC(O[C@H]2CC[C@]34C[C@]35CC[C@]3(C)C6C(O[C@@H]([C@@H]7OC(=O)OC7(C)C)C[C@H]6C)[C@H](O)[C@@]3(C)[C@@H]5CC[C@H]4C2(C)C)[C@@H]1O (some centres unmarked) | 1 to 10 µM |  | 
CC(=O)N(Cc1ccccc1)C(C(=O)NCc1ccccc1)C1CC(C)C2C(O1)C(O)C1(C)C3CCC4C(C)(C)C(O)CCC45CC35CCC21C (centres unmarked) |  | > 10 µM | 
CC(C)C(=O)OC(C1CC(C)C2C(O1)C(O)C1(C)C3CCC4C(C)(C)C(OC5CN(C6COC6)CCO5)CCC45CC35CCC21C)C(C)(C)O (centres unmarked) [drawing 866] |  | > 10 µM | 
CC(=O)OC(C1CC(C)C2C(O1)C(OC(=O)C(F)(F)F)C1(C)C3CCC4C(C)(C)C(O)CCC45CC35CCC21C)C(C)(C)O (centres unmarked) |  | ≤ 1 µM | 
CC1CC(C(O)C(C)(C)O)OC2C1C1(C)CCC34CC35CCC(OC3CN(C(=O)C6CCOCC6)CCO3)C(C)(C)C5CCC4C1(C)C2O (centres unmarked) |  |  | % Inhibition (range) (Aβ-42, 20 umol/L): E (% inhibition of 25-75%)
CC(=O)O[C@@H]([C@H]1C[C@@H](C)C2C(O1)[C@H](O)[C@@]1(C)[C@@H]3CC[C@H]4C(C)(C)[C@H](O)CC[C@@]45C[C@@]35CC[C@]21C)C(C)(C)O (some centres unmarked) [drawing 944] |  | 1 to 10 µM | 
CC1CC(CN(C)C)OC2C1C1(C)CCC34CC35CCC(O)C(C)(C)C5CCC4C1(C)C2O (centres unmarked) |  | > 10 µM | 
CC(=O)O[C@@H]([C@H]1C[C@@H](C)C2C(O1)[C@H](O)[C@@]1(C)[C@@H]3CC[C@H]4C(C)(C)[C@@H](OC(CO)OCCO)CC[C@@]45C[C@@]35CC[C@]21C)C(C)(C)O (some centres unmarked) | ≤ 1 µM |  | 
CO[C@@H]1[C@@H](OC)[C@H](O[C@H]2CC[C@]34C[C@]35CC[C@]3(C)C6C(O[C@@H]([C@H](OC(C)=O)C(C)(C)O)C[C@H]6C)[C@H](O)[C@@]3(C)[C@@H]5CC[C@H]4C2(C)C)OC[C@H]1OC (some centres unmarked) [drawing 938] |  | ≤ 1 µM | 
CC(=O)O[C@@H]([C@H]1C[C@@H](C)C2=C(O1)[C@H](O[Si](C)(C)C(C)(C)C)[C@@]1(C)[C@@H]3CC[C@H]4C(C)(C)[C@H](N)CC[C@@]45C[C@@]35CC[C@]21C)C(C)(C)O |  |  | inhibition at 100 µM (Aβ-42, 100 umol/L, read-out: % Inhibition (range)): < 25%
C[C@@H]1C[C@H](CO)O[C@H]2C1[C@@]1(C)CC[C@@]34C[C@@]35CC[C@H](O[C@@H]3OC[C@@H](O)[C@H](O)[C@H]3O)C(C)(C)[C@@H]5CC[C@H]4[C@]1(C)[C@H]2O (some centres unmarked) | > 10 µM |  | 
CC(=O)N(CC1CC(C)C2C(O1)C(O)C1(C)C3CCC4C(C)(C)C(O)CCC45CC35CCC21C)C(C)C (centres unmarked) [drawing 845] |  | 1 to 10 µM | 
CC1CC(CO)OC2C1C1(C)CCC34CC35CCC(OC3OCC(O)C(O)C3O)C(C)(C)C5CCC4C1(C)C2O (centres unmarked) [drawing 782] |  | > 10 µM | % Inhibition (range) (Aβ-42, 20 umol/L): E (% inhibition of 25-75%)
CC(=O)N(CC1CC1)CC1CC(C)C2C(O1)C(O)C1(C)C3CCC4C(C)(C)C(O)CCC45CC35CCC21C (centres unmarked) |  | > 10 µM | 
CC(=O)N(CC1CC(C)C2C(O1)C(O)C1(C)C3CCC4C(C)(C)C(O)CCC45CC35CCC21C)C(C)c1ccccc1 (centres unmarked) [drawing 851] |  | 1 to 10 µM | 
CC(=O)N(CC1CC(C)C2C(O1)C(O)C1(C)C3CCC4C(C)(C)C(O)CCC45CC35CCC21C)CC(C)(C)C (centres unmarked) |  | 1 to 10 µM | 
CC(=O)OC(C1CC(C)C2C(O1)C(OC(N)=O)C1(C)C3CCC4C(C)(C)C(OC(N)=O)CCC45CC35CCC21C)C(C)(C)O (centres unmarked) |  | > 10 µM | 
